Measured values published in US20110251220A1, “Pharmaceutical compositions comprising gamma secretase modulators” (priority 2008, published 2011).

Tests used:
Type in all cases: cell-based, human
MM cells = assay: Cell cycle analysis (propidium iodide staining), MM cells; settings: after 48 h and 72 h
Method: The compound according to example 1, hereinafter referred to as GSI15, (compound RH02015SC, Maybridge, Acros Organics, Geel, Belgium) was freshly dissolved as 26 mM stock solution in Dimethylsulfoxide (DMSO). Multiple myeloma therapeutics used were melphalan (marketed as Alkeran®, GlaxoSmithKline, Munich, Germany) and bortezomib (marketed as Velcade®, Janssen-Cilag, Neuss, Germany). Melphalan was freshly dissolved at 10 mg/ml in 0.9% NaCl-solution. Bortezomib was freshly dissolved at 100 ng/ml in 0.9% NaCl solution. Gamma Secretase Inhibitor (GSI) treatment for apoptosis assessment by AnnexinV/PI staining, cell cycle analysis and coculture experiments was performed in 6-well plates. GSI15 stock solution was added directly to the cell suspension. GSI treatment for assaying proliferation was performed in 96-well plates. […]
For cell cycle analysis 2×10^5 cells were spun down, medium was aspirated and cells washed with PBS. […] After 10 minutes incubation in the dark at room temperature, cells were analyzed by flow cytometry. The amount of apoptotic cells was determined by AnnexinV/propidium iodide staining using Human AnnexinV-FITC Kit (Bender Medsystems, Vienna, Austria), according to manufacturer's protocol. […] Cells were then spun down again, resuspended in binding buffer containing PI and analyzed by flow cytometry.

Hes-1 = assay: Quantitative RT-PCR of Notch1 target gene Hes-1 in OPM-2 cells; settings: OPM-2 cells treated with GSI15
Method: Quantitative real-time reverse transcription-PCR (RT-PCR) analysis was performed using the following primer/probe sets: human Hes-1 (forward—[…], reverse—[…], probe—FAM-[…]-TAMRA) human TRAP5 (forward—[…], reverse—[…], probe FAM-[…]-TAMRA), human beta2-microglobulin (forward—ccc cca ctg aaa aag atg ag, reverse—atc caa tcc aaa tgc ggc, probe—FAM-CCTGCCGTGTGAACCATGTGACTTT-TAMRA) served as normalizer. Total RNA was extracted from MM cells, human osteoclasts or human osteoblasts using RNeasy Mini Kit (Qiagen, Hilden, Germany) following the manufacturer's instructions. For the RT-PCR reaction SuperScript™ III Platinum® One-Step Quantitative RT-PCR System (Invitrogen, Karlsruhe, Germany) was used. 50 ng total RNA were used per reaction, each RNA sample was analyzed in three replicates. PCR conditions (40 cycles) were the following: reverse transcription at 50° C. for 30 minutes, initial denaturation at 95° C. for 10 minutes, followed by 40 cycles of 45 seconds denaturation at 95° C. and 60 seconds annealing/extension at 62° C. Amplification of the house-keeping gene beta2-microglobulin was used to normalize the expression data. Normalized mRNA expression data were then calculated as values relative to the respective untreated sample.

OPM-2 cells = assay: Proliferation/viability assay (CellTiter-Glo), OPM-2; settings: OPM-2, 48 h treatment
Method: Human MM cell lines used were as follows: NCI-H929, OPM-2, LP-1, RPMI-8226, U266 (DSMZ, Braunschweig, Germany). Cell lines were cultured in RPMI 1640 medium (Biochrom, Berlin, Germany) supplemented with 10% heat-inactivated fetal calf serum (FCS, Gibco, Karlsruhe, Germany), 1 mM sodium pyruvate and 100 units/ml penicillin and 100 μg/ml streptomycin (Gibco). Human osteoclasts were obtained as described in the reference of Zavrski I, Krebbel H, Wildemann B, et al. Proteasome inhibitors abrogate osteoclast differentiation and osteoclast function. Biochem Biophys Res Commun. 2005; 333:200-205. Briefly, peripheral blood mononuclear cells (PBMC) were isolated from whole blood of healthy volunteers, using a Ficoll-Hypaque density gradient. The adherent fraction of the isolated mononuclear cells was cultured for 21 days in MEM medium (Sigma-Aldrich Chemie, Taufkirchen, Germany) supplemented with 10% FCS, 100 U/ml penicillin, 100 μg/ml streptomycin, 50 ng/ml M-CSF, and 25 ng/ml RANKL (osteoclastogenic medium), before coculture experiments and treatment with the inventive compounds started. […]
For assaying proliferation/viability of cells CellTiter-Glo Luminescent Cell Viability Assay (Promega, Mannheim, Germany) was used. In this assay the number of viable cells at a given time point is determined by quantification of ATP present, which serves as a measure of metabolically active cells. […]

CC(C)c1ccc(S(=O)(=O)Nc2cccnc2Oc2ccc(Cl)cc2)cc1 [Example 1, N-(2-(4-chlorophenoxy)pyridin-3-yl)-4-isopropylbenzenesulfonamide]
distribution of G1-, S- and G2-phase (MM cells): remained unaltered
Hes-1 expression (Notch1 target gene) (Hes-1): dose-dependently downregulated
concentration of maximum effect on proliferation (OPM-2 cells): 60 µM
proliferation (OPM-2 cells): dose-dependent reduction of proliferation
